Each block holds one molecule with its values, some of them ahead of it.
Test system: 653999-131-R-J2-PDC complex spheroids, growth inhibition
Experiment: Anticancer human tumor 653999-131-R-J2-PDC patient-derived lung adenocarcinoma cell line growth inhibition [RAS]
Settings: for IC50: curve of first compound; for viability, T/C: stronger effect = lower value
Method in brief: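 Agents were tested in combination matrices in half-log decrements from a top concentration at or near clinical Cmax (10 microM if undetermined). Targets were multi-cell spheroids of tumour lines plus HUVEC and MSC stromal cells.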

[1] = second compound 0.000949 µM, first compound 0.0316 µM
[2] = second compound 0.000949 µM, first compound 0.1 µM
[3] = second compound 0.000949 µM, first compound 0.316 µM
[4] = second compound 0.000949 µM, first compound 1 µM
[5] = second compound 0.003 µM, first compound 0.0316 µM
[6] = second compound 0.003 µM, first compound 0.1 µM
[7] = second compound 0.003 µM, first compound 0.316 µM
[8] = second compound 0.003 µM, first compound 1 µM
[9] = second compound 0.00949 µM, first compound 0.0316 µM
[10] = second compound 0.00949 µM, first compound 0.1 µM
[11] = second compound 0.00949 µM, first compound 0.316 µM
[12] = second compound 0.00949 µM, first compound 1 µM
[13] = second compound 0.03 µM, first compound 0.0316 µM
[14] = second compound 0.03 µM, first compound 0.1 µM
[15] = second compound 0.03 µM, first compound 0.316 µM
[16] = second compound 0.03 µM, first compound 1 µM
[17] = second compound 0.0949 µM, first compound 0.0316 µM
[18] = second compound 0.0949 µM, first compound 0.1 µM
[19] = second compound 0.0949 µM, first compound 0.316 µM
[20] = second compound 0.0949 µM, first compound 1 µM
[21] = second compound 0.3 µM, first compound 0.0316 µM
[22] = second compound 0.3 µM, first compound 0.1 µM
[23] = second compound 0.3 µM, first compound 0.316 µM
[24] = second compound 0.3 µM, first compound 1 µM
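Note: spheroids exposed to the agents for seven days before the readout.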

IC50 (second compound 0.000949 µM): 953 nM
IC50 (second compound 0.003 µM): 1240 nM
IC50 (second compound 0.00949 µM): 1530 nM
IC50 (second compound 0.03 µM): 1530 nM
IC50 (second compound 0.0949 µM): 1160 nM
IC50 (second compound 0.3 µM): 996 nM
SMILES: CC(C)NCC(C(=O)N1CCN(c2ncnc3c2C(C)CC3O)CC1)c1ccc(Cl)cc1 (stereo unspecified) + CCn1c(-c2cccnc2C(C)OC)c2c3cc(ccc31)N1CCOC(CC(NC(=O)C(C(C)C)N(C)C(=O)C3(F)CCN(C(=O)C#CC(C)(C)N(C)C)CC3)C(=O)N3CCCC(N3)C(=O)OCC(C)(C)C2)C1
viability, T/C [1]: 91%
viability, T/C [2]: 110%
viability, T/C [3]: 72.1%
viability, T/C [4]: 53.1%
viability, T/C (second compound 0.000949 µM, first compound 3.16 µM): 41.6%
viability, T/C (second compound 0.000949 µM, first compound 10 µM): 34.6%
viability, T/C [5]: 86.8%
viability, T/C [6]: 99.8%
viability, T/C [7]: 70.2%
viability, T/C [8]: 54.3%
viability, T/C (second compound 0.003 µM, first compound 3.16 µM): 40.6%
viability, T/C (second compound 0.003 µM, first compound 10 µM): 32.9%
viability, T/C [9]: 118%
viability, T/C [10]: 94.4%
viability, T/C [11]: 83.6%
viability, T/C [12]: 48.2%
viability, T/C (second compound 0.00949 µM, first compound 3.16 µM): 44.7%
viability, T/C (second compound 0.00949 µM, first compound 10 µM): 30.6%
viability, T/C [13]: 101%
viability, T/C [14]: 85.1%
viability, T/C [15]: 76.4%
viability, T/C [16]: 53.5%
viability, T/C (second compound 0.03 µM, first compound 3.16 µM): 40.8%
viability, T/C (second compound 0.03 µM, first compound 10 µM): 31.2%
viability, T/C [17]: 109%
viability, T/C [18]: 81.7%
viability, T/C [19]: 73.3%
viability, T/C [20]: 47.3%
viability, T/C (second compound 0.0949 µM, first compound 3.16 µM): 39.9%
viability, T/C (second compound 0.0949 µM, first compound 10 µM): 36.5%
viability, T/C [21]: 92%
viability, T/C [22]: 85.7%
viability, T/C [23]: 64.8%
viability, T/C [24]: 49.9%
viability, T/C (second compound 0.3 µM, first compound 3.16 µM): 42.5%
viability, T/C (second compound 0.3 µM, first compound 10 µM): 34.2%

IC50 (second compound 0.000949 µM): 110 nM
IC50 (second compound 0.003 µM): 122 nM
IC50 (second compound 0.00949 µM): 76.6 nM
IC50 (second compound 0.03 µM): 81.4 nM
IC50 (second compound 0.0949 µM): 120 nM
IC50 (second compound 0.3 µM): 82 nM
SMILES: O=C(c1ccc(F)c(F)c1Nc1ccc(I)cc1F)N1CC(O)([C@@H]2CCCCN2)C1 + CCn1c(-c2cccnc2C(C)OC)c2c3cc(ccc31)N1CCOC(CC(NC(=O)C(C(C)C)N(C)C(=O)C3(F)CCN(C(=O)C#CC(C)(C)N(C)C)CC3)C(=O)N3CCCC(N3)C(=O)OCC(C)(C)C2)C1
viability, T/C (second compound 0.000949 µM, first compound 0.00316 µM): 83.6%
viability, T/C (second compound 0.000949 µM, first compound 0.01 µM): 74.5%
viability, T/C [1]: 68.5%
viability, T/C [2]: 55.8%
viability, T/C [3]: 20.6%
viability, T/C [4]: 12%
viability, T/C (second compound 0.003 µM, first compound 0.00316 µM): 82.5%
viability, T/C (second compound 0.003 µM, first compound 0.01 µM): 60%
viability, T/C [5]: 71.3%
viability, T/C [6]: 50.8%
viability, T/C [7]: 38.4%
viability, T/C [8]: 15.4%
viability, T/C (second compound 0.00949 µM, first compound 0.00316 µM): 92.9%
viability, T/C (second compound 0.00949 µM, first compound 0.01 µM): 65.2%
viability, T/C [9]: 63.7%
viability, T/C [10]: 52.3%
viability, T/C [11]: 30.1%
viability, T/C [12]: 13.2%
viability, T/C (second compound 0.03 µM, first compound 0.00316 µM): 77.4%
viability, T/C (second compound 0.03 µM, first compound 0.01 µM): 57.8%
viability, T/C [13]: 64.5%
viability, T/C [14]: 49.6%
viability, T/C [15]: 26.2%
viability, T/C [16]: 14.2%
viability, T/C (second compound 0.0949 µM, first compound 0.00316 µM): 62%
viability, T/C (second compound 0.0949 µM, first compound 0.01 µM): 68.1%
viability, T/C [17]: 66.5%
viability, T/C [18]: 51.7%
viability, T/C [19]: 31.4%
viability, T/C [20]: 13.5%
viability, T/C (second compound 0.3 µM, first compound 0.00316 µM): 65.3%
viability, T/C (second compound 0.3 µM, first compound 0.01 µM): 70.2%
viability, T/C [21]: 73.1%
viability, T/C [22]: 43.4%
viability, T/C [23]: 23.5%
viability, T/C [24]: 10.4%

IC50 (second compound 0.000949 µM): > 300 nM
IC50 (second compound 0.003 µM): > 300 nM
IC50 (second compound 0.00949 µM): > 300 nM
IC50 (second compound 0.03 µM): > 300 nM
IC50 (second compound 0.0949 µM): > 300 nM
IC50 (second compound 0.3 µM): > 300 nM
SMILES: CC1(C)CCC(Nc2ncc(C(F)(F)F)c(-c3c[nH]c4c(P(C)(C)=O)c(C#N)ccc34)n2)CN1 (stereo unspecified) + CCn1c(-c2cccnc2C(C)OC)c2c3cc(ccc31)N1CCOC(CC(NC(=O)C(C(C)C)N(C)C(=O)C3(F)CCN(C(=O)C#CC(C)(C)N(C)C)CC3)C(=O)N3CCCC(N3)C(=O)OCC(C)(C)C2)C1
viability, T/C (second compound 0.000949 µM, first compound 0.000949 µM): 89.4%
viability, T/C (second compound 0.000949 µM, first compound 0.003 µM): 82.6%
viability, T/C (second compound 0.000949 µM, first compound 0.00949 µM): 81.1%
viability, T/C (second compound 0.000949 µM, first compound 0.03 µM): 79.7%
viability, T/C (second compound 0.000949 µM, first compound 0.0949 µM): 84.6%
viability, T/C (second compound 0.000949 µM, first compound 0.3 µM): 71.6%
viability, T/C (second compound 0.003 µM, first compound 0.000949 µM): 96%
viability, T/C (second compound 0.003 µM, first compound 0.003 µM): 84.2%
viability, T/C (second compound 0.003 µM, first compound 0.00949 µM): 79.5%
viability, T/C (second compound 0.003 µM, first compound 0.03 µM): 77.7%
viability, T/C (second compound 0.003 µM, first compound 0.0949 µM): 84.9%
viability, T/C (second compound 0.003 µM, first compound 0.3 µM): 71.2%
viability, T/C (second compound 0.00949 µM, first compound 0.000949 µM): 99.5%
viability, T/C (second compound 0.00949 µM, first compound 0.003 µM): 89.3%
viability, T/C (second compound 0.00949 µM, first compound 0.00949 µM): 84.9%
viability, T/C (second compound 0.00949 µM, first compound 0.03 µM): 72%
viability, T/C (second compound 0.00949 µM, first compound 0.0949 µM): 79.3%
viability, T/C (second compound 0.00949 µM, first compound 0.3 µM): 87.2%
viability, T/C (second compound 0.03 µM, first compound 0.000949 µM): 85.4%
viability, T/C (second compound 0.03 µM, first compound 0.003 µM): 83.9%
viability, T/C (second compound 0.03 µM, first compound 0.00949 µM): 71%
viability, T/C (second compound 0.03 µM, first compound 0.03 µM): 74.1%
viability, T/C (second compound 0.03 µM, first compound 0.0949 µM): 77.4%
viability, T/C (second compound 0.03 µM, first compound 0.3 µM): 76.9%
viability, T/C (second compound 0.0949 µM, first compound 0.000949 µM): 80.4%
viability, T/C (second compound 0.0949 µM, first compound 0.003 µM): 66.8%
viability, T/C (second compound 0.0949 µM, first compound 0.00949 µM): 67.5%
viability, T/C (second compound 0.0949 µM, first compound 0.03 µM): 68%
viability, T/C (second compound 0.0949 µM, first compound 0.0949 µM): 74%
viability, T/C (second compound 0.0949 µM, first compound 0.3 µM): 70.3%
viability, T/C (second compound 0.3 µM, first compound 0.000949 µM): 82.3%
viability, T/C (second compound 0.3 µM, first compound 0.003 µM): 71.7%
viability, T/C (second compound 0.3 µM, first compound 0.00949 µM): 63.8%
viability, T/C (second compound 0.3 µM, first compound 0.03 µM): 63.9%
viability, T/C (second compound 0.3 µM, first compound 0.0949 µM): 70.8%
viability, T/C (second compound 0.3 µM, first compound 0.3 µM): 64.5%
